Earlier results as cited in patent publication US20150342872A1 (CRITITECH, INC., priority 2014, published 2015).

Key:
[1] = tested on: microtubule bundling and cytotoxic effects
[2] = 3-hour infusion, 135 versus 175 mg/m2

For `CC(=O)O[C@H]1C(=O)[C@@]2(C)[C@H]([C@H](OC(=O)c3ccccc3)[C@]3(O)C[C@H](OC(=O)[C@H](O)[C@@H](NC(=O)c4ccccc4)c4ccccc4)C(C)=C1C3(C)C)[C@]1(OC(C)=O)CO[C@@H]1C[C@@H]2O` [paclitaxel], the “minimal concentration required to induce microtubule bundling and cytotoxic effects” value [1] is given as greater than 0.1 µmol/L and the “increase of AUC (0-∞) for a 30% increase in dose” value [2] is given as 89%.
